Assay results from patent US7459441B2, “Remedies for dry eye and diseases associated with dry eye” (Senju Pharmaceutical Co., Ltd., priority 2001, dated 2008).
Where no end group is shown, it is not given here.

Legend:
[1] = Trypsin digestion test in the presence of chondroitin sulfate; type: in vitro ADME; settings: 0.5 mU trypsin, pH 7.5, 37° C., 180 minutes, read-out: remaining rate (undegraded peptide by HPLC)
Procedure: The effect of highly basified Peptide 5 on digestion with trypsin was studied in the presence of chondroitin sulfate.
To 100 μL of a solution of VIP and Peptide 5 (1 mg/mL) was added 400 μL of a solution of chondroitin sulfate (pH 7.5, 100 μg/mL) in a 0.2 M Tris-HCl buffer (pH 7.5). To 100 μL of this solution was added 0.5 mU of trypsin and the mixture was incubated at 37° C. for 180 minutes. Then, an amount of an undegraded peptide was measured by HPLC.

[2] = Digestion test with bronchoalveolar lavage fluid (BALF); type: in vitro ADME; settings: rat BALF, 90 minutes; for remaining at 1.5 h, 0.1 mg/mL: male, SD, bronchoalveolar lavage fluid (BALF), pH 7.4, 37° C., read-out: remaining rate (undegraded peptide by HPLC)
Procedure: The effect of highly basified Peptide 5 on digestion with bronchoalveolar lavage fluid was studied.
VIP and Peptide 5 were dissolved (1.1 mg/mL) in a 0.2% Tris-HCl buffer (pH 7.4), and bronchoalveolar lavage fluid (BALF) was added thereto. BALF was obtained by pouring 5 mL of a physiological saline into a trachea of a 8 to 9 week old normal SD male rat (about 350 g) under anesthesia, and recovering the saline, and repeating this procedure totally three times. To 0.5 mL of BALF was added 0.05 mL of a sample solution and the mixture was reacted at 37° C. for 90 minutes, and thereafter an amount of undegraded peptide was measured by HPLC.

[3] = system: isolated lacrimal gland; assay: Promotion of protein secretion from isolated lacrimal gland; parameters: species or system rabbit; settings: 10^-4 M, treating time 0 to 40 minutes, n=5, Dunnett's test (FIG. 1)
Procedure: An isolated lacimal gland of a rabbit was treated with VIP, or Peptide 5 or 15, and the pharmacological effect of these peptides on increase in an amount of secreted protein was studied.
a) Purified water was added to sodium chloride (137.92 g), potassium chloride (7.01 g), calcium chloride-dihydrate (3.53 g) and magnesium chloride.hexahydrate (1.2 g) and the mixture was made up to a total volume of 1000 mL (Solution 1). Separately, purified water was added to potassium dihydrogen phosphate (8.17 g) and the mixture was made up to a total volume of 500 mL (Solution 2). Solution 1 (50 mL) and Solution 2 (10 mL) were added to 900 mL of purified water, 2.07 g of glucose and 2.1 g of […] were dissolved therein, a total amount was adjusted to 1000 mL (pH about 7.4) to obtain an incubation medium. The incubation medium was bubbled with mixed gas containing 95% oxygen and 5% carbon dioxide.
b) VIP, Peptide 5 or Peptide 15 was dissolved in the incubation medium at a concentration of 10^−4 M to obtain a test solution. […]
a) The piece specimen in the steady state was used, the incubation medium was exchanged with 0.5 mL of a fresh incubation medium, followed by incubation at 37° C. for 20 minutes. This incubation medium was collected, a protein staining reagent (DC Protein assay reagent, Bio Rad) was added thereto, and an amount of protein was measured and expressed as an amount of secreted protein per mg of wet weight. […]
b) The incubation medium of the piece specimen after incubation in a) was exchanged with 0.5 mL of a test solution, and the solution was exchanged and collected at 20 minutes intervals totally five times. A protein staining reagent was added to the collected solution, and an amount of protein was measured. For a piece specimen in a control group, the incubation medium was exchanged similarly, and an amount of protein was measured.

[4] = system: eyes of a Japanese white rabbit; assay: Lacrimal secretion promotion activity of eye drops (1), Schirmer test; type: in vivo; settings: for Amount of lacrimal secretion (Schirmer's value), After administration: 10 minutes after single 50 μL application; for Amount of lacrimal secretion (Schirmer's value), After administration / amount of lacrimal secretion after vs before application (paired t test): Peptide 5 0.1 w/v %, Peptide 15 2.0 w/v %; for Amount of lacrimal secretion (Schirmer's value), After administration / Amount of lacrimal secretion (Schirmer's value), Before administration: n = 6, mean ± standard error; for Amount of lacrimal secretion (Schirmer's value), Before administration: baseline before single 50 μL application to eyes; for amount of lacrimal secretion after vs before application (paired t test): single application to eyes
Procedure: Peptide 5 or 15 was applied to eyes of a rabbit, and an amount of secreted tears was measured, whereby, the pharmacological effect of these peptides on increase in an amount of lacrimal secretion was studied.
Purified water was added to sodium chloride (0.9 g) and sodium dihydrogen phosphate.dihydrate (0.1 g) to make up to a total volume of 100 mL. Further, an appropriate amount of aqueous sodium hydroxide solution was added so as to adjust pH to 7.0 to obtain a vehicle. Peptide 5 was dissolved in the vehicle at a concentration of 0.1 w/v %, and Peptide 15 was dissolved in the vehicle at a concentration of 2.0 w/v %, to prepare test solutions.
Measurement of an amount of tears was performed by a Schirmer test. To eyes of a Japanese white rabbit, 50 μL of a test solution was applied once, and amounts of lacrimal secretion before and 10 minutes after the application to eyes were measured. Five minutes before measurement of an amount of tears, 10 μL of 0.4 w/v % oxybuprocaine hydrochloride (Anelocal™ eye drops, Senju Pharmaceutical Co., Ltd.) was dropped to topically anesthetize. After tears in palpebra interior conjunctival sac were wiped out using a filter paper, and an amount of lacrimal secretion for 1 minute was measured using a Schirmer test paper (Showa Yakuhin Kako Co., Ltd.).

[5] = system: eyes of a Japanese white rabbit; assay: Lacrimal secretion promotion activity of eye drops (2), Schirmer test with time; type: in vivo; settings: for AUC0-120 min, accumulated value of increment of amount of lacrimal secretion after application / increment of amount of lacrimal secretion vs control group / AUC value compared with control group (significance): 0.1 w/v %; for AUC0-120 min, accumulated value of increment of amount of lacrimal secretion after application: 50 μL once to eyes, n = 8, average ± standard error; for increment of amount of lacrimal secretion vs control group: 10 minutes after the administration, n=8 (FIG. 2); for AUC value compared with control group (significance): 120 minutes after the administration, Dunnett-type multiple comparison test
Procedure: In the same manner as that of Test Example 4, Peptide 5 was applied, and an amount of lacrimal secretion was measured. In this test, an amount of lacrimal secretion was measured with time, and the effect was compared with that of VIP.
Preparation of a solution was performed in the same manner as that of Test Example 4, and VIP and Peptide 5 were dissolved in the vehicle at a concentration of 0.1 w/v %, to prepare a test solution.
[…] Measurement of an amount of lacrimal secretion was performed in the same manner as that of Test Example 4.

| remaining rate as compared with VIP [2] | Molecule | remaining at 3 h, 0.2 mg/mL [1] [%] | remaining at 1.5 h, 0.1 mg/mL [2] [%] | rate of protein secretion from isolated lacrimal gland vs control group [3] | Amount of lacrimal secretion (Schirmer's value), After administration [4] [mm/min] | Amount of lacrimal secretion (Schirmer's value), Before administration [4] [mm/min] | amount of lacrimal secretion after vs before application (paired t test) [4] | AUC0-120 min, accumulated value of increment of amount of lacrimal secretion after application [5] | increment of amount of lacrimal secretion vs control group [5] | AUC value compared with control group (significance) [5] | duration of lacrimal secretion promoting activity compared with VIP ([5]; application to eyes) |
| --- | --- | --- | --- | --- | --- | --- | --- | --- | --- | --- | --- |
| about 1.8 fold | HSDAVFTDNYTRLRRQLAVRRYLNSILNGRR-NH2 [Peptide 5] | 89 | 80 | significantly increased | 8.92 ± 0.45 | 2.00 ± 0.62 | significantly increased | 359.2 ± 85.0 ΔSchirmer's value × min. | significantly increased | significantly higher value | longer-lasting |
| – | CC[C@H](C)[C@H](NC(=O)[C@H](CO)NC(=O)[C@H](CC(N)=O)NC(=O)[C@H](CC(C)C)NC(=O)[C@H](Cc1ccc(O)cc1)NC(=O)[C@H](CCCCN)NC(=O)[C@H](CCCCN)NC(=O)[C@@H](NC(=O)[C@H](C)NC(=O)[C@H](CCSC)NC(=O)[C@H](CCC(N)=O)NC(=O)[C@H](CCCCN)NC(=O)[C@H](CCCNC(=N)N)NC(=O)[C@H](CC(C)C)NC(=O)[C@H](CCCNC(=N)N)NC(=O)[C@@H](NC(=O)[C@H](Cc1ccc(O)cc1)NC(=O)[C@H](CC(N)=O)NC(=O)[C@H](CC(=O)O)NC(=O)[C@@H](NC(=O)[C@H](Cc1ccccc1)NC(=O)[C@@H](NC(=O)[C@H](C)NC(=O)[C@H](CC(=O)O)NC(=O)[C@H](CO)NC(=O)[C@@H](N)Cc1c[nH]cn1)C(C)C)[C@@H](C)O)[C@@H](C)O)C(C)C)C(=O)N[C@@H](CC(C)C)C(=O)N[C@@H](CC(N)=O)C(N)=O [VIP, Vasoactive Intestinal Peptide, reference compound] | 75 | 45.5 | significantly increased | – | – | – | 215.0 ± 98.2 ΔSchirmer's value × min. | significantly increased | a significant difference is not recognized | – |
| – | Peptide 15: VIP derivative of formula (I): X1 Lys, X2 Leu, X3 Lys, X4 Lys, X5 chemical bond, X6 -NH2 (HSDAVFTDNYTRLRKQLAVKKYL-NH2) | – | – | significantly increased | 7.75 ± 2.16 | 3.25 ± 1.20 | tendency of increase | – | – | – | – |
